In PubChem BioAssay AID248 (DTP/NCI, 2004):
“And” between values parts separate entries of the source, which are not always exact repeats. Equal values may be shown once. Inconclusive results and toxic doses are left out. Cut-off read from the data, not from the text of the source: active = T/C of 150% or more; inactive = T/C below 125%.

System: L1210 leukemia ip in BDF1 mice, survival T/C
Test: NCI In Vivo Anticancer Drug Screen. Data for tumor model L1210 Leukemia (intraperitoneal) in B6D2F1 (BDF1) mice
Settings: endpoint: mean survival time, higher = longer survival
Outline: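 Survival endpoint. Drug-treated group vs vehicle group, expressed as T divided by C. Tumor passaged by transplantation.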

[1] = dose: 100.0 mg/kg/injection, schedule: Q01DX009 (ip), vehicle: saline
[2] = dose: 100.0 mg/kg/injection, schedule: Q04DX003 (ip), vehicle: saline with Tween-80
[3] = dose: 200.0 mg/kg/injection, schedule: Q01DX009 (ip), vehicle: saline
[4] = dose: 200.0 mg/kg/injection, schedule: Q04DX003 (ip), vehicle: saline with Tween-80
[5] = dose: 400.0 mg/kg/injection, schedule: Q04DX003 (ip), vehicle: saline with Tween-80
[6] = dose: 100.0 mg/kg/injection, schedule: Q01DX001 (ip), vehicle: other
[7] = dose: 200.0 mg/kg/injection, schedule: Q01DX001 (ip), vehicle: other
[8] = dose: 50.0 mg/kg/injection, schedule: Q01DX009 (ip), vehicle: saline with Tween-80
[9] = dose: 100.0 mg/kg/injection, schedule: Q01DX009 (ip), vehicle: saline with Tween-80
[10] = dose: 100.0 mg/kg/injection, schedule: Q01DX009 (ip), vehicle: Klucel (hydroxypropylcellulose) (HPC)
[11] = dose: 100.0 mg/kg/injection, schedule: Q04DX003 (ip), vehicle: Klucel (hydroxypropylcellulose) (HPC)
[12] = dose: 200.0 mg/kg/injection, schedule: Q01DX009 (ip), vehicle: Klucel (hydroxypropylcellulose) (HPC)
[13] = dose: 200.0 mg/kg/injection, schedule: Q04DX003 (ip), vehicle: Klucel (hydroxypropylcellulose) (HPC)
[14] = dose: 400.0 mg/kg/injection, schedule: Q01DX009 (ip), vehicle: Klucel (hydroxypropylcellulose) (HPC)
[15] = dose: 400.0 mg/kg/injection, schedule: Q04DX003 (ip), vehicle: Klucel (hydroxypropylcellulose) (HPC)
[16] = dose: 100.0 mg/kg/injection, schedule: Q04DX003 (ip), vehicle: other
[17] = dose: 200.0 mg/kg/injection, schedule: Q04DX003 (ip), vehicle: other
[18] = dose: 50.0 mg/kg/injection, schedule: Q01DX001 (ip), vehicle: carboxymethylcellulose (CMC)
[19] = dose: 100.0 mg/kg/injection, schedule: Q01DX001 (ip), vehicle: carboxymethylcellulose (CMC)
[20] = dose: 200.0 mg/kg/injection, schedule: Q01DX001 (ip), vehicle: carboxymethylcellulose (CMC)
[21] = dose: 400.0 mg/kg/injection, schedule: Q01DX001 (ip), vehicle: carboxymethylcellulose (CMC)
[22] = dose: 100.0 mg/kg/injection, schedule: Q04DX002 (ip), vehicle: Klucel (hydroxypropylcellulose) (HPC)

Measured: T/C

CCOC(=O)c1ccc(NC(=S)NC(=O)c2cccc([N+](=O)[O-])c2)cc1
inactive: dose: 50.0 mg/kg/injection, schedule: Q01DX001 (ip), vehicle: saline with Tween-80 88 % of control | dose: 100.0 mg/kg/injection, schedule: Q01DX001 (ip), vehicle: saline with Tween-80 88 % of control | [1] 99 % of control and 86 % of control | dose: 100.0 mg/kg/injection, schedule: Q04DX002 (ip), vehicle: alcohol 93 % of control | [2] 105 % of control | dose: 200.0 mg/kg/injection, schedule: Q01DX001 (ip), vehicle: saline with Tween-80 104 % of control and 87 % of control | [3] 93 % of control and 101 % of control | dose: 200.0 mg/kg/injection, schedule: Q04DX002 (ip), vehicle: alcohol 90 % of control | [4] 97 % of control | dose: 400.0 mg/kg/injection, schedule: Q01DX001 (ip), vehicle: saline with Tween-80 106 % of control | dose: 400.0 mg/kg/injection, schedule: Q04DX002 (ip), vehicle: alcohol 90 % of control | [5] 95 % of control

O=P(O)(O)Cc1c(Cl)c(Cl)c(CP(=O)(O)O)c(Cl)c1Cl
inactive: dose: 100.0 mg/kg/injection, schedule: Q01DX001 (ip), vehicle: saline 107 % of control | dose: 200.0 mg/kg/injection, schedule: Q01DX001 (ip), vehicle: saline 104 % of control | dose: 400.0 mg/kg/injection, schedule: Q01DX001 (ip), vehicle: saline 104 % of control

Oc1ccccc1C=Nc1ccccc1O.[Cu+2]
inactive: [6] 107 % of control | [7] 116 % of control

Cc1cccc(OCCOC(=O)Nc2ccc(C)cc2[N+](=O)[O-])c1
inactive: [8] 97 % of control | [9] 87 % of control | [2] 103 % of control | [4] 94 % of control | [5] 99 % of control

O=C1Nc2ccccc2/C1=C/Cl
inactive: dose: 6.25 mg/kg/injection, schedule: Q04DX002 (ip), vehicle: saline with Tween-80 96 % of control | dose: 12.5 mg/kg/injection, schedule: Q04DX002 (ip), vehicle: saline with Tween-80 100 % of control | dose: 25.0 mg/kg/injection, schedule: Q04DX002 (ip), vehicle: saline with Tween-80 103 % of control

CCCCCCCCCCCCCCCC[N+]1(C)CCS(C)(OS(=O)(=O)OC)CC1 (stereo not drawn)
inactive: dose: 6.25 mg/kg/injection, schedule: Q01DX001 (ip), vehicle: saline 95 % of control | dose: 12.5 mg/kg/injection, schedule: Q01DX001 (ip), vehicle: saline 88 % of control | dose: 25.0 mg/kg/injection, schedule: Q01DX001 (ip), vehicle: saline 88 % of control

CC[N+](C)(C)C1CCCCC1
inactive: dose: 75.0 mg/kg/injection, schedule: Q01DX001 (ip), vehicle: saline 94 % of control

COc1cc2ccc(CC(=O)NCCc3ccc4c(c3)OCO4)cc2cc1OC
inactive: [10] 97 % of control | [11] 97 % of control | [12] 90 % of control | [13] 102 % of control | [14] 93 % of control | [15] 91 % of control

CC(C)(C)c1ccc(CN2CCN(C(c3ccccc3)c3ccc(Cl)cc3)CC2)cc1 (stereo not drawn)
inactive: dose: 12.5 mg/kg/injection, schedule: Q01DX009 (ip), vehicle: Klucel (hydroxypropylcellulose) (HPC) 98 % of control | dose: 25.0 mg/kg/injection, schedule: Q01DX009 (ip), vehicle: Klucel (hydroxypropylcellulose) (HPC) 91 % of control | dose: 25.0 mg/kg/injection, schedule: Q04DX003 (ip), vehicle: Klucel (hydroxypropylcellulose) (HPC) 93 % of control | dose: 50.0 mg/kg/injection, schedule: Q01DX009 (ip), vehicle: Klucel (hydroxypropylcellulose) (HPC) 91 % of control | dose: 50.0 mg/kg/injection, schedule: Q04DX003 (ip), vehicle: Klucel (hydroxypropylcellulose) (HPC) 93 % of control | [11] 96 % of control | [13] 91 % of control

NC(=O)OCCCCCCOC(N)=O
inactive: [2] 90 % of control | [4] 90 % of control | [5] 87 % of control

N#CCN(CC#N)S(=O)(=O)c1ccccc1
inactive: [2] 96 % of control | [4] 94 % of control | [5] 101 % of control

c1cc[c]([Sn]([c]2ccccc2)([c]2ccccc2)[n]2cccc2)cc1
inactive: dose: 3.13 mg/kg/injection, schedule: Q01DX009 (ip), vehicle: saline with Tween-80 98 % of control | dose: 6.25 mg/kg/injection, schedule: Q01DX009 (ip), vehicle: saline with Tween-80 102 % of control | dose: 12.5 mg/kg/injection, schedule: Q01DX009 (ip), vehicle: saline with Tween-80 100 % of control | [9] 94 % of control

Cc1oncc1/C=C/c1ccon1
inactive: [16] 96 % of control | [17] 91 % of control

Nc1ccc2c(c1)Cc1cc(Br)ccc1-2
inactive: [10] 103 % of control | [11] 96 % of control | [12] 101 % of control | [13] 102 % of control | [14] 101 % of control | [15] 108 % of control

CCOC(=O)n1ccc2nc3ccccc3cc21
inactive: dose: 100.0 mg/kg/injection, schedule: Q01DX001 (ip), vehicle: Klucel (hydroxypropylcellulose) (HPC) 100 % of control | dose: 200.0 mg/kg/injection, schedule: Q01DX001 (ip), vehicle: Klucel (hydroxypropylcellulose) (HPC) 105 % of control | dose: 400.0 mg/kg/injection, schedule: Q01DX001 (ip), vehicle: Klucel (hydroxypropylcellulose) (HPC) 90 % of control

Nc1cc2c(cc1[N+](=O)[O-])-c1ccc([N+](=O)[O-])cc1C2=O
inactive: [18] 98 % of control | [19] 113 % of control | [20] 98 % of control | [21] 109 % of control

N=C1SCC(=O)N1CCN1C(=N)SCC1=O
inactive: [19] 101 % of control | [20] 90 % of control | [21] 97 % of control

COC(=O)c1ccc(F)cc1
inactive: [18] 92 % of control | [19] 97 % of control | [20] 97 % of control | [21] 95 % of control

O=C(c1ccc(O)c(C(=O)O)c1)c1ccc(O)c(C(=O)O)c1
inactive: [19] 95 % of control | [20] 95 % of control | [21] 101 % of control

O=C1C=C(C(=O)O)CO1
inactive: [10] 95 % of control

CCOC(=O)NCC(CCN(C)C)(CN(C)C)c1cccc2ccccc12 (stereo not drawn)
inactive: dose: 50.0 mg/kg/injection, schedule: Q04DX002 (ip), vehicle: Klucel (hydroxypropylcellulose) (HPC) 102 % of control | [22] 106 % of control

Nc1ccccc1C(=O)OCCc1ccccc1
inactive: [10] 93 % of control | [11] 94 % of control | [12] 93 % of control | [13] 95 % of control | [14] 95 % of control | [15] 92 % of control

O=[N+]([O-])c1ccc(N/N=C(\c2ccccc2)c2ccc(O)cc2O)c([N+](=O)[O-])c1
inactive: [6] 91 % of control | [16] 95 % of control | [7] 91 % of control | [17] 96 % of control | dose: 400.0 mg/kg/injection, schedule: Q01DX001 (ip), vehicle: other 95 % of control | dose: 400.0 mg/kg/injection, schedule: Q04DX003 (ip), vehicle: other 96 % of control

CCOC(=O)C(C(=O)OCC)c1nc(=O)[nH]c(=O)[nH]1
inactive: dose: 100.0 mg/kg/injection, schedule: Q01DX Z (ip), vehicle: methylcellulose (MC) 97 % of control

CC1CCCCN1C(=O)Nc1ccc(Cl)cc1Cl (stereo not drawn)
inactive: [8] 91 % of control | [9] 102 % of control | dose: 200.0 mg/kg/injection, schedule: Q01DX009 (ip), vehicle: saline with Tween-80 98 % of control

O=C(NCc1ccncc1)C(c1ccccc1)c1ccccc1
inactive: [22] 96 % of control | dose: 200.0 mg/kg/injection, schedule: Q04DX002 (ip), vehicle: Klucel (hydroxypropylcellulose) (HPC) 92 % of control

Cc1ccc(C)c(NC(=O)N2CCN(C)CC2)c1
inactive: [1] 97 % of control | [3] 100 % of control

c1ccc(Cc2ccccn2)nc1
inactive: dose: 100.0 mg/kg/injection, schedule: Q04DX003 (ip), vehicle: saline sonified 110 % of control | dose: 200.0 mg/kg/injection, schedule: Q04DX003 (ip), vehicle: saline sonified 104 % of control | dose: 400.0 mg/kg/injection, schedule: Q04DX003 (ip), vehicle: saline sonified 104 % of control

Cc1cc(C(=O)O)c(C)cc1C(=O)O
inactive: [2] 98 % of control | [4] 93 % of control | [5] 98 % of control

CCCCCCCCCNC(C)=O
inactive: [10] 97 % of control | [12] 92 % of control
